Test results from patent publication US10947188B2, “Small molecule ferroptosis inducers” (THE TRUSTEES OF COLUMBIA UNIVERSITY IN THE CITY OF NEW YORK, priority 2016, dated 2021).

Tested on: HT-1080
Experiment: Modulatory profiling: Alamar Blue viability, lethal compound cotreated with death modulator (EC50, AUC)
Type: cell-based
Design: AUC, modulator HT.3MA / AUC, modulator HT.ALLN / AUC HT.ATA / AUC HT.ActD / AUC HT.BHA / AUC HT.BHT / AUC HT.BocD / AUC HT.CHX / AUC HT.Co2+ / AUC HT.DPQ / AUC HT.EGTA / AUC HT.Lmim / AUC HT.NAD+ / AUC HT.Nec-1 / AUC HT.SP600125 / AUC HT.TLCK / AUC HT.U0126: unit not given beside the values
Details: for AUC HT.ATA: HT-1080, modulator ATA; for AUC HT.ActD: HT-1080, modulator ActD; for AUC HT.BHA: HT-1080, modulator BHA; for AUC HT.BHT: HT-1080, modulator BHT; for AUC HT.BocD: HT-1080, modulator BocD; for AUC HT.CHX: HT-1080, modulator CHX; for AUC HT.Co2+: HT-1080, modulator Co2+; for AUC HT.CspA: HT-1080, modulator CspA; for AUC HT.DPQ: HT-1080, modulator DPQ; for AUC HT.EGTA: HT-1080, modulator EGTA; for AUC HT.Gd3+: HT-1080, modulator Gd3+; for AUC HT.LNAME: HT-1080, modulator LNAME; for AUC HT.Lmim: HT-1080, modulator Lmim; for AUC HT.NAD+: HT-1080, modulator NAD+; for AUC HT.NMMA: HT-1080, modulator NMMA; for AUC HT.Nec-1: HT-1080, modulator Nec-1; for AUC HT.Pepstatin: HT-1080, modulator Pepstatin; for AUC HT.SP600125: HT-1080, modulator SP600125; for AUC HT.TLCK: HT-1080, modulator TLCK; for AUC HT.U0126: HT-1080, modulator U0126; for HT.atoc (AUC) / HT.bCarotene (AUC) / HT.deferox (AUC) / HT.digoxin (AUC) / HT.trolox (AUC) / HT.zVAD (AUC): HT-1080; for HT.atoc (AUC): modulator atoc; for HT.bCarotene (AUC): modulator bCarotene; for HT.deferox (AUC): modulator deferox; for HT.digoxin (AUC): modulator digoxin; for HT.trolox (AUC): modulator trolox; for HT.zVAD (AUC): modulator zVAD; for AUC, modulator HT.3MA / AUC, modulator HT.ALLN: HT-1080 cells, modulatory profile value (AUC); for AUC, modulator HT.3MA: lethal compound cotreated with modulator 3MA; for AUC, modulator HT.ALLN: lethal compound cotreated with modulator ALLN

Compound: CC(C)[C@@H]1NC(=O)[C@H](C)OC(=O)[C@@H](C(C)C)NC(=O)[C@@H](C(C)C)OC(=O)[C@H](C(C)C)NC(=O)[C@H](C)OC(=O)[C@@H](C(C)C)NC(=O)[C@@H](C(C)C)OC(=O)[C@H](C(C)C)NC(=O)[C@H](C)OC(=O)[C@@H](C(C)C)NC(=O)[C@@H](C(C)C)OC1=O [Vatinomycin]
- AUC HT.ATA: 0.04039
- AUC HT.ActD: 0.0779
- AUC HT.BHA: −0.01263
- AUC HT.BHT: −0.05233
- AUC HT.BocD: 0.01496
- AUC HT.CHX: 0.1024
- AUC HT.Co2+: −0.06183
- AUC HT.CspA: −0.03789
- AUC HT.DPQ: 0.1702
- AUC HT.EGTA: −0.04483
- AUC HT.Gd3+: −0.004524
- AUC HT.LNAME: −0.03843
- AUC HT.Lmim: 0.1163
- AUC HT.NAD+: 0.07833
- AUC HT.NMMA: −0.002681
- AUC HT.Nec-1: 0.08394
- AUC HT.Pepstatin: 0.0197
- AUC HT.SP600125: −0.161
- AUC HT.TLCK: 0.02961
- AUC HT.U0126: 0.005482
- HT.atoc (AUC): 0.2292
- HT.bCarotene (AUC): −0.01526
- HT.deferox (AUC): 0.004145
- HT.digoxin (AUC): −0.1615
- HT.trolox (AUC): 0.04463
- HT.zVAD (AUC): −0.05753
- AUC, modulator HT.3MA: −0.1653
- AUC, modulator HT.ALLN: 0.04228

Compound: CC[C@]1(O)C[C@@H]2CN(CCc3c([nH]c4ccccc34)[C@@](C(=O)OC)(c3cc4c(cc3OC)N(C)[C@H]3[C@@](O)(C(=O)OC)[C@H](OC(C)=O)[C@]5(CC)C=CCN6CC[C@]43[C@@H]65)C2)C1 [Vinbiastine]
- AUC HT.ATA: 0.09963
- AUC HT.ActD: 0.05584
- AUC HT.BHA: −0.01651
- AUC HT.BHT: 0.01379
- AUC HT.BocD: 0.1256
- AUC HT.CHX: 0.06309
- AUC HT.Co2+: 0.2269
- AUC HT.CspA: −0.1335
- AUC HT.DPQ: 0.003688
- AUC HT.EGTA: 0.01055
- AUC HT.Gd3+: −0.002557
- AUC HT.LNAME: −0.01231
- AUC HT.Lmim: 0.126
- AUC HT.NAD+: 0.1682
- AUC HT.NMMA: −0.003516
- AUC HT.Nec-1: −0.005874
- AUC HT.Pepstatin: −0.0004474
- AUC HT.SP600125: 0.002862
- AUC HT.TLCK: 0.002362
- AUC HT.U0126: 0.1372
- HT.atoc (AUC): 0.1573
- HT.bCarotene (AUC): 0.001945
- HT.deferox (AUC): 0.2847
- HT.digoxin (AUC): 0.1245
- HT.trolox (AUC): −0.001959
- HT.zVAD (AUC): 0.08924
- AUC, modulator HT.3MA: 0.05249
- AUC, modulator HT.ALLN: 0.1527

Compound: CC[C@]1(O)C[C@H]2CN(CCc3c([nH]c4ccccc34)[C@@](C(=O)OC)(c3cc4c(cc3OC)N(C=O)[C@H]3[C@@](O)(C(=O)OC)[C@H](OC(C)=O)[C@]5(CC)C=CCN6CC[C@]43[C@@H]65)C2)C1 [Vincristine]
- AUC HT.ATA: 0.1304
- AUC HT.ActD: 0.05976
- AUC HT.BHA: −0.004754
- AUC HT.BHT: −0.01568
- AUC HT.BocD: 0.1401
- AUC HT.CHX: 0.08269
- AUC HT.Co2+: 0.217
- AUC HT.CspA: −0.1876
- AUC HT.DPQ: 0.01267
- AUC HT.EGTA: 0.009231
- AUC HT.Gd3+: −0.0009641
- AUC HT.LNAME: 0.001779
- AUC HT.Lmim: 0.1155
- AUC HT.NAD+: 0.1699
- AUC HT.NMMA: 0.004831
- AUC HT.Nec-1: 0.02188
- AUC HT.Pepstatin: 0.000262
- AUC HT.SP600125: 0.0008998
- AUC HT.TLCK: −0.006394
- AUC HT.U0126: 0.1926
- HT.atoc (AUC): 0.01853
- HT.bCarotene (AUC): 0.01182
- HT.deferox (AUC): 0.3217
- HT.digoxin (AUC): 0.142
- HT.trolox (AUC): −0.01599
- HT.zVAD (AUC): 0.1172
- AUC, modulator HT.3MA: 0.0299
- AUC, modulator HT.ALLN: 0.1869

Compound: C[C@@H]1C[C@@H]([C@H](O)CC2CC(=O)NC(=O)C2)C(=O)[C@@H](C)C1 [cycloheximide, Cycloheximide, reference compound]
- AUC HT.ATA: −0.01057
- AUC HT.ActD: 0.06057
- AUC HT.BHA: 0.06705
- AUC HT.BHT: −0.03297
- AUC HT.BocD: 0.0413
- AUC HT.CHX: 0.1462
- AUC HT.Co2+: 0.09948
- AUC HT.CspA: 0.04639
- AUC HT.DPQ: 0.01425
- AUC HT.EGTA: 0.01386
- AUC HT.Gd3+: 0.002991
- AUC HT.LNAME: 0.02188
- AUC HT.Lmim: 0.1089
- AUC HT.NAD+: 0.07007
- AUC HT.NMMA: 0.01986
- AUC HT.Nec-1: 0.03736
- AUC HT.Pepstatin: 0.006163
- AUC HT.SP600125: −0.003327
- AUC HT.TLCK: 0.01836
- AUC HT.U0126: 0.03848
- HT.atoc (AUC): 0.01667
- HT.bCarotene (AUC): 0.008758
- HT.deferox (AUC): 0.2041
- HT.digoxin (AUC): 0.0457
- HT.trolox (AUC): 0.02127
- HT.zVAD (AUC): 0.0358
- AUC, modulator HT.3MA: 0.005512
- AUC, modulator HT.ALLN: 0.3818
